Source: patent US9855250B1, “Method to treat lung cancer” (Macau University of Science and Technology, priority 2016, dated 2018)

Legend:
[1] = tested on: CCD-19 Lu cells; assay: MTT cytotoxicity assay on normal lung fibroblast CCD-19 Lu cells; assay type: cell-based; conditions: 72 h; even at concentration 20 times the IC50 on H1975 cells
Protocol: (§1) H1975 and CCD-19 Lu was purchased from ATCC (American type culture collection). H1975 was cultivated with RPMI 1640 medium supplement with 10% fetal bovine serum (Gibco, Big Cabin, Okla., ME, USA), 100 U/mL, penicillin and 100 μg/mL and streptomycin (Gibco, Big Cabin, Okla., ME, USA). CCD-19 Lu was cultivated with MEM medium supplemented with 10% FBS, 100 U/ml penicillin and 100 μg/ml streptomycin. All cells were cultivated at 37° C. in a humidified atmosphere of 5% CO2.
(§2) H1975 cells were seeded in a 96-well microplate with 3000 cells/well confluence, and put into the incubator overnight for cells adhesion. Different concentrations of the compound F321-0719 were added with Dimethyl sulfoxide (DMSO) as vehicle control. The microplates were incubated for further 72 h. Each dosage was repeated in triplicate. 10 μL of MTT (5 mg/mL) solution was added to each well. The plate was placed back into the incubator for 4 hours. After that, 100 μL of resolved solution (10% SDS and 0.1 mM HCL) was added to each well. Before dissolving the formazan crystals, the microplate was put back into the incubator for another 4 hours. The absorbance of the plate was measured at 570 nm with reference 650 nm by a microplate reader (Tecan, Morrisville, N.C., USA). Cell viability was calculated by percentages of the absorbance of the treatment group divided by the absorbance of untreated group. […]

[2] = as above; assay type: cell-based; conditions: human, CCD-19 Lu normal lung fibroblast cells, CCD-19 Lu normal lung cells, MTT
Protocol: as §1, §2

[3] = tested on: phosphorylation of AMPK and ACC; assay: Western blot analysis of AMPK and ACC phosphorylation in H1975 cells; assay type: cell-based; conditions: β-actin loading control
Protocol: After incubating H1975 cells with the compound F321-0719 for 24 h, H1975 cells were harvested and washed with cold 1×PBS. Then, cells were lysed with ice-cold RIPA lysis buffer with protease and phosphatase inhibitors added to extract the cell protein extraction. The supernatants were collected by centrifugation at 12,000 g, for 5 minutes. The quantitation of total protein extraction was measured by Bio-Rad DCTM protein assay kit (Bio-Rad, Philadelphia, Pa., USA). Then 30 μg of protein were loaded and electrophoretically separated on 10% SDS-PAGE gel and then transferred to Nitrocellulose (NC) membrane. Membranes were blocked with 5% non-fat milk and […] containing 0.1% Tween-20 (TBST) for 1 hour at room temperature. After 1 hour, membranes were incubated with primary antibodies (1:1000 dilution) against β-actin, total/phosphor-ACC, total-AMPK, and against phosphor-AMPK, at 4° C. with gently shaking overnight. Membranes were washed with TBST for 3 times (5 minutes/time), and incubated with secondary fluorescent antibody (1:10000 dilutions) for 1 hour at room temperature. Rewashing with TBST for 3 times (15 minutes/time), the stripes were visualized by LI-COR Odessy scanner (Belfast, Me., USA).

[4] = tested on: H1975 cells; assay: MTT cytotoxicity assay on H1975 NSCLC cells; assay type: cell-based; conditions: Homo sapiens, NCI-H1975, H1975, EGFR L858R/T790M, 72 h treatment
Protocol: as §1, §2

[5] = tested on: AMPK; assay: AMPK enzyme activity assay (CycLex AMPK Kinase Assay Kit); assay type: biochemical; conditions: at 2.5 μM of the compound
Source text: The CycLex AMPK Kinase Assay Kit (CycLex Co., Ltd., Nagano, Japan) was used to detect the activation of AMPK by the compound F321-0719. Compound C was used as AMPK inhibitor, and AMPK active enzyme was used as a positive control for phosphorylation.

[6] = tested on: H1975 cells; assay: Cell cycle analysis (PI staining, flow cytometry) in H1975 cells; assay type: cell-based; conditions: 5 μM and 10 μM, 48 h
Protocol: H1975 cells were plated with 1.5×10^5 cells/well at a 6-well plate and cultured overnight for attachment. Cells were treated with the compound F321-0775 at 0, 2.5, 5, 10 μM for 48 h. After treatment, all cells were harvested by trypsinization, and collected by centrifugation. After removing all suspension, cells were washed by PBS. Cells pellets were re-suspended in 70% ethanol at 4° C. overnight. Cells were centrifuged at 1000 rpm for 5 min to remove all the ethanol. Each cell pellet was re-suspended in 500 μl PI staining solution at 37° C. for 30 min in dark. Then, they were washed in PBS twice. Cells were re-suspended in 300 μl 1× binding buffer and transferred to the flow cytometer (BD FACS Aria III).

[7] = tested on: H1975 cells; assay: Apoptosis assay (Annexin-V FITC/PI flow cytometry) in H1975 cells; assay type: cell-based; conditions: 48 h treatment, vs control group
Protocol: H1975 cells (1×10^5 cells/well) were seeded in a 6-well plate for 24 h, and treated with the indicated concentrations of the compound F321-0719 for an additional 48 h at 37° C. After 48 h, the cells were washed by ice-cold 1×PBS (Phosphate-buffered saline) once and harvested by trypsination. Then cells were centrifuged, collected and re-suspended in ice-cold 1×PBS. After removing the supernatants, cell pellets were re-suspended in 100 μL 1× Annexin-binding buffer. The cells were then double-stained with Annexin-V FITC and PI (100 μg/mL) of 2 μL respectively for 15 min at room temperature in dark. After that, 300 μL 1× Annexin-binding buffer was added. Apoptotic cells were quantitatively counted by a BD Aria III Flow Cytometer (BD Biosciences, San Jose, Calif., USA).

O=C(Nc1cccc(-c2noc(C3CCCC3)n2)c1)c1cc2ccccc2[nH]1 [F321-0719]
cytotoxicity on CCD-19 Lu cells [1]: no cytotoxicity | IC50 at 72 h [2]: > 100 µM | phosphorylation of AMPK and ACC (western blot) [3]: activated phosphorylation of both AMPK and ACC in a dose-dependent manner | IC50 [4]: 3.46 ± 1.71 µM | AMPK enzyme activity (fold of AMPK kinase group) [5]: enhanced | G2 phase of cell cycle distribution [6]: increased | apoptosis level [7]: induced significant level of apoptosis in a concentration-dependent manner
